One data set concerns PBMC. The experiment in a line: PBMC viability (AO/PI staining). It is filed as cell-based, human. The note with it: for impact on cell viabilities in HIV-1BAL infection: PBMC post infection with HIV-1BAL; for PBMC viability at 24hr post treatment: 10-500 μM of MMP inhibitors for 24hours. As for the experimental part:
PBMC from de-identified healthy donors were obtained with informed consent from the Department of Transfusion Medicine, National Institutes of Health under Biological reagent Registry RD-14-IX-12 approved by NIH biological safety board. CD8-depleted PBMCs, either stimulated or non-stimulated with 10 μg/mL phytohaemagglutinin (PHA) or anti-CD3 antibody (with or without conjugated beads), were plated at 2×10^6 cells/ml in 48 well plates in RPMI 1640 + 10%FBS (R10) to a final volume of 1 mL in each well. IL-2 was added at a final concentration of 20 U/mL. CD3 antibody okt3 was used at ~0.2 μg/mL final concentration. Compounds were prepared in appropriate solvents according to the manufacturer’s instructions, diluted to working concentrations using RPMI 1640 + 10%FBS (R10), and added to the cell cultures for 6–24 h for CD62L shedding, and 48 h for TNF-α release. Supernatants were collected and assessed using either the CD62L or TNF-α Duo Set ELISA kit according to manufacturer’s instructions (R&D Systems, Inc.). The viability of cells treated with compounds was assessed by acridine orange / propidiom iodide (AO/PI Logosbio catalog F23001) staining using Luna-FL cell counter following the manufacture’s instruction.^2

A further data set has as its target T1, recombinant ADAM10 (Homo sapiens, UniProt O14672).
T1 construct: purchased R&D systems, Inc
T1 sequence (O14672 214-748): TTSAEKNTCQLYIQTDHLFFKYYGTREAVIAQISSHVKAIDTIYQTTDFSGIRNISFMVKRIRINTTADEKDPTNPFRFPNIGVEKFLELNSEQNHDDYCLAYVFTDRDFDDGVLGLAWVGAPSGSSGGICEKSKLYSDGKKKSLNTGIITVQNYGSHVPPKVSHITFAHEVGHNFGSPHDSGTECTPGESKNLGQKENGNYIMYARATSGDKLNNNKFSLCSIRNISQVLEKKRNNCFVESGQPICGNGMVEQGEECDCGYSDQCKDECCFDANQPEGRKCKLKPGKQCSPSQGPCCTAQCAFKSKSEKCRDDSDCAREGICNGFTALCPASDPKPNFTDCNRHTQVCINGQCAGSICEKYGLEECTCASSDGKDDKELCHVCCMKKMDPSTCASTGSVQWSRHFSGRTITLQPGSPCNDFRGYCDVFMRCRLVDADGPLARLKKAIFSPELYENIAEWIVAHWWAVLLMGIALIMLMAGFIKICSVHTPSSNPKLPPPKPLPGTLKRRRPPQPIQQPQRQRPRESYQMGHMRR
As to the kind of experiment: Kinetic cleavage of fluorogenic TNF-α peptide ES003 by recombinant ADAM10. It counts as biochemical. The note with it: for inhibition of ADAM10 cleavage of ES003: 2 μM compound; for Ki: ES003 substrate, 4-h time point, non-linear regression, read-out: Inhibition constant Ki ADAM10. The source says: A fluorescence based enzymatic assay was used to measure the cleavage of fluorogenic TNF-α and L-selectin (CD62L) peptides by either recombinant ADAMs or PBMC from healthy donors. The fluorogenic substrate, synthesized by Biomatik^3, was a Dabcyl (4-(4-dimethylaminophenylazo)benzoyl)- and Edans (5-[(2-aminoethyl)amino]naphthalene-1-sulfonic acid)- conjugated 12 amino acid peptide: Dabcyl-[…]-Edans that corresponds to the extracellular membrane proximal region of CD62L. […] The cleavage was measured in a kinetic assay every 3 min for 4 h in black 96-well plates using a Synergy_h1 fluorescent plate reader (BioTek) with 340 nm excitation and 490 nm emission wavelengths. […] PBMC were stimulated with anti-CD3 antibody for 2–4 days as described above.
96-well plate with data recorded every 3 minutes for 4 hours using a Synergy_h1 fluorescent plate reader. Each enzymatic reaction contained 50 -200 ng
Figure 2B and 2C bar diagrams are generated using the
data points at 4 hour time point of the enzymatic cleavages.

Data set [1] concerns CD62L shedding. The experiment in a line: Soluble CD62L ELISA, unstimulated PBMC. It is filed as cell-based, human. The note with it: Homo sapiens, PBMC, read-out: Shedding inhibition Non-stim.
Data set [2] has as its system CD62L shedding. The experiment in a line: Soluble CD62L ELISA, anti-CD3/PHA stimulated PBMC or CD4 T cells. It counts as cell-based, human. Conditions: for inhibition at 10 µM: Homo sapiens, 10 μM compound, stimulated cells; for inhibition at 10 µM / effect on CD62L shedding / soluble CD62L: ELISA; for effect on CD62L shedding / soluble CD62L: stimulated PBMC or CD4 T cells. In a few lines:
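Healthy-donor PBMC stimulated with okt3 anti-CD3 (~0.2 μg/mL final) plus IL-2 (20 U/mL final) in presence of compound. Soluble CD62L in supernatants measured by ELISA; viability checked by AO/PI staining.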

The mark [3] stands for this setting: 10 μM compound, non-stimulated cells, ELISA.

The text below walks through data of article PMC10987949, “Inhibition of HIV-1 release by ADAM metalloproteinase inhibitors” (Frontiers in Microbiology, 2024).

Each structure is given as a SMILES string. “Also recorded” adds a separate entry of the source. Where only a bound is given, the exact number is not on record here.

Take `CC1(C)SCCN(S(=O)(=O)c2ccc(Oc3ccncc3)cc2)[C@H]1C(=O)NO` [prinomastat]: the “impact on cell viabilities in HIV-1BAL infection” value in the data set with PBMC is “without significant impact to cell viabilities”. Also, at recombinant ADAM10, the “concentrations inhibiting ADAM10 enzymatic activity” value lay within 20 to 50 nM; the “inhibition of ADAM10 cleavage of ES003” value is “inhibited both ADAM10 and 17”; the Ki is 2 ± 0.4 nM. The inhibition at 10 µM in the data set on CD62L shedding [1] (setting [3]) was > 50%. In the data set on CD62L shedding [2], the inhibition at 10 µM is > 50% and the “effect on CD62L shedding / soluble CD62L” value was “suppressed CD62L shedding”.

For `CNC(=O)[C@H](Cc1ccccc1)NC(=O)[C@H](CC(C)C)[C@H](CSc1cccs1)C(=O)NO` [BB-94, Batimastat], in the data set on PBMC, the “PBMC viability at 24hr post treatment” value is “No significant decrease in the viability” and the “impact on cell viabilities in HIV-1BAL infection” value is reported as “without significant impact to cell viabilities”. For the same compound, at recombinant ADAM10, the “concentrations inhibiting ADAM10 enzymatic activity” value is 20 to 50 nM; the “inhibition of ADAM10 cleavage of ES003” value is “inhibited both ADAM10 and 17; also recorded: indistinguishable from that of ES003-only curve without the enzyme”. The inhibition at 10 µM with CD62L shedding [1] was > 50%. Also, in the data set on CD62L shedding [2], the inhibition at 10 µM is > 50% and the “effect on CD62L shedding / soluble CD62L” value is on record as “suppressed CD62L shedding; also recorded: inhibited”. The “effect on 3,4-dichloroisocouman enhanced CD62L shedding” value in the data set on CD62L shedding [2] (stimulated PBMC) was “blocked”.

For `CNC(=O)[C@@H](NC(=O)[C@H](CCCc1ccccc1)[C@H](C)N(O)C=O)C(C)(C)C` [GI254023X], the “PBMC viability at 24hr post treatment” value in the data set on PBMC was “No significant decrease in the viability”. Further, at recombinant ADAM10, the “inhibition of ADAM10 cleavage of ES003” value is given as “preferentially inhibited the enzymatic activity of ADAM10 compared to ADAM17” and the Ki came to 11 ± 9 nM. For the same compound, the inhibition at 10 µM with CD62L shedding [1] (setting [3]) fell in the range of 20 to 50%. In the data set with CD62L shedding [2], the inhibition at 10 µM is > 50% and the “effect on CD62L shedding / soluble CD62L” value was “suppressed CD62L shedding”.
